Key:
[1] = target: Glutamate receptor ionotropic AMPA (Homo sapiens) (UniProt P48058+P42263+P42262+P42261); assay: Inhibition of AMPA receptor at 10 uM; assay type: protein-complex assay
[2] = target: T1, Glutamate [NMDA] receptor (Homo sapiens) (UniProt Q05586+Q12879+Q13224+O15399+O60391+Q14957+Q8TCU5); assay: Inhibition of agonist site of NMDA receptor at 10 uM; assay type: functional
[3] = target: Sodium-dependent noradrenaline transporter (Homo sapiens, UniProt P23975); assay: Inhibition of NET at 10 uM
Chain of Sodium-dependent noradrenaline transporter (P23975 whole entry): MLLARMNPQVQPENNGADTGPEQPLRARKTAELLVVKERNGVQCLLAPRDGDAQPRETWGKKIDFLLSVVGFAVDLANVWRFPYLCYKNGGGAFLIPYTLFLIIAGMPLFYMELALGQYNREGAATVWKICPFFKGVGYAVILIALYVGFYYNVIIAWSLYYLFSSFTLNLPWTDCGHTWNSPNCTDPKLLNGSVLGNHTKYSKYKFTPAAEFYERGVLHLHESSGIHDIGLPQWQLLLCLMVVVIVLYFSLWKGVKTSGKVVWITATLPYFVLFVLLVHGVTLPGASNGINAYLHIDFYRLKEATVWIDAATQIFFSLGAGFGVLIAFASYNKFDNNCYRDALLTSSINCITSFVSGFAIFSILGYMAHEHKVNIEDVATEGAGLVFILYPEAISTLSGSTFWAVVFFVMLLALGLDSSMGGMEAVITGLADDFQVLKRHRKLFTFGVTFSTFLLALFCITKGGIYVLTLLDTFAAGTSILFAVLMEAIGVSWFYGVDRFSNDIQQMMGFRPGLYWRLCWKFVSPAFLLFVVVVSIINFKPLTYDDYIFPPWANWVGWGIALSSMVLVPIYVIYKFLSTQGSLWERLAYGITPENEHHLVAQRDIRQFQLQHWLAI

[4] = target: L-type calcium channel, dihydropyridine site (Homo sapiens, UniProt O60840+Q01668+Q13698+Q13936); assay: Inhibitory activity at dihydropyridine site of Calcium channel L type at 100 nM; assay type: protein assay
[5] = target: T1, Glutamate [NMDA] receptor (Homo sapiens); assay: Inhibition of MK-801 site of glutamate receptor at 100 nM; assay type: protein-complex assay
[6] = target: Epidermal growth factor receptor (Homo sapiens) (UniProt P00533); assay: Inhibition of EGFR at 1 nM
Chain of Epidermal growth factor receptor (Homo sapiens) (P00533 whole entry): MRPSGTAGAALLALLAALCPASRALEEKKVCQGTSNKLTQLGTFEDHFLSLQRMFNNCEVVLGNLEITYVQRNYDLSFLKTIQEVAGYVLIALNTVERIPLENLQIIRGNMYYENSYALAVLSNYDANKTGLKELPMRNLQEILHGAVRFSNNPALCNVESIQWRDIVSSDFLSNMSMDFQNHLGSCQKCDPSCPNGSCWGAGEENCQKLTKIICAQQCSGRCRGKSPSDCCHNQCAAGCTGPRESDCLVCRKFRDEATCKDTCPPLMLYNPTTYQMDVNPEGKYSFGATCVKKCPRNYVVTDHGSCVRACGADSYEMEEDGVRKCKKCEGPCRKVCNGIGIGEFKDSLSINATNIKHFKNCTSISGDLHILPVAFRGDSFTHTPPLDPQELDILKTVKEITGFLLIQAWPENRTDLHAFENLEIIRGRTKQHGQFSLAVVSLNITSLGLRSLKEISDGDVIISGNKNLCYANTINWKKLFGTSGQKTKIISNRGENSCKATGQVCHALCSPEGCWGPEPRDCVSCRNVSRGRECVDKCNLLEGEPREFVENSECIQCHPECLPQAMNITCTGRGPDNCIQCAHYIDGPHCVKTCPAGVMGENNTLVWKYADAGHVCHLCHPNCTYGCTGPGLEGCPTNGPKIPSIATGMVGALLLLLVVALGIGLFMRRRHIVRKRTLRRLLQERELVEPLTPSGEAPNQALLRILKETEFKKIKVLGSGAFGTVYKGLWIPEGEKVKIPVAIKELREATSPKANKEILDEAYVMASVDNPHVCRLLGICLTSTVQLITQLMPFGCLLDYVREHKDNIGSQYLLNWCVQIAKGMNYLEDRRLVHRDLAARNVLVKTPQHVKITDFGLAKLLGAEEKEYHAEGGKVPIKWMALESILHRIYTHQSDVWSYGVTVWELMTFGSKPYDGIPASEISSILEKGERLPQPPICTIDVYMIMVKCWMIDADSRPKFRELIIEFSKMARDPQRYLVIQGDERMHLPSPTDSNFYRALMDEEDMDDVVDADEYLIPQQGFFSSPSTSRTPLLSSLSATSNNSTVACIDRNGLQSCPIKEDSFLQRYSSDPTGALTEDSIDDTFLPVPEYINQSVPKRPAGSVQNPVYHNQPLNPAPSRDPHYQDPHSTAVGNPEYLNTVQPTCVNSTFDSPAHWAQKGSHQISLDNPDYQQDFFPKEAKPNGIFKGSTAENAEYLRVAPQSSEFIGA

[7] = target: T2, Type-1 angiotensin II receptor (Homo sapiens) (UniProt P30556); assay: Inhibition of type 1 angiotensin 2 receptor at 10 uM
T2 sequence (whole entry): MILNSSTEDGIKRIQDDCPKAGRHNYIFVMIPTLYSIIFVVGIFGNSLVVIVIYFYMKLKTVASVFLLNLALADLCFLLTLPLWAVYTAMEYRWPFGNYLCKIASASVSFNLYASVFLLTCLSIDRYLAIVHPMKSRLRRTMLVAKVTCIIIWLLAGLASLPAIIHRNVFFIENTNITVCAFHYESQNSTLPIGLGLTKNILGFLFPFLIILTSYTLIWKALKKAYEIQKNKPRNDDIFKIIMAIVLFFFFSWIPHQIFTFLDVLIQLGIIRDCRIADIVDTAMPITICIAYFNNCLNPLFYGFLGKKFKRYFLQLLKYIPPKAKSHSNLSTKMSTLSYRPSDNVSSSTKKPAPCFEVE

[8] = target: T3, Endothelin-1 receptor (Homo sapiens) (UniProt P25101); assay: Inhibition of human recombinant endothelin 1 receptor at 100 nM
T3 sequence (whole entry): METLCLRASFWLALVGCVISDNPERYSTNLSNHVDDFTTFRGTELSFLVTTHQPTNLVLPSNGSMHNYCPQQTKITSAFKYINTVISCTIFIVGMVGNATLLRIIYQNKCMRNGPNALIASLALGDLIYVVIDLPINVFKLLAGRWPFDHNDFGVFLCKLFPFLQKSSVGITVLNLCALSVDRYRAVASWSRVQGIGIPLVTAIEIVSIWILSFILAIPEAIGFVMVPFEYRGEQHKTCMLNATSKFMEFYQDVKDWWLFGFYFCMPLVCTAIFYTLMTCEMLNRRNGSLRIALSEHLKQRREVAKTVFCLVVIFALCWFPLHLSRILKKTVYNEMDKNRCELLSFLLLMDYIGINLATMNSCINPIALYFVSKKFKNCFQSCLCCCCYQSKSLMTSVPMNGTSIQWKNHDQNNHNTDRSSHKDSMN

[9] = Inhibition of non selective binding to VIP at 1 nM
[10] = target: T4, Alpha-2C adrenergic receptor (Homo sapiens, UniProt P18825); assay: Displacement of [3H]clonidine from cloned human adrenergic Alpha-2C receptor expressed in Sf9 cells
T4 sequence (P18825 whole entry): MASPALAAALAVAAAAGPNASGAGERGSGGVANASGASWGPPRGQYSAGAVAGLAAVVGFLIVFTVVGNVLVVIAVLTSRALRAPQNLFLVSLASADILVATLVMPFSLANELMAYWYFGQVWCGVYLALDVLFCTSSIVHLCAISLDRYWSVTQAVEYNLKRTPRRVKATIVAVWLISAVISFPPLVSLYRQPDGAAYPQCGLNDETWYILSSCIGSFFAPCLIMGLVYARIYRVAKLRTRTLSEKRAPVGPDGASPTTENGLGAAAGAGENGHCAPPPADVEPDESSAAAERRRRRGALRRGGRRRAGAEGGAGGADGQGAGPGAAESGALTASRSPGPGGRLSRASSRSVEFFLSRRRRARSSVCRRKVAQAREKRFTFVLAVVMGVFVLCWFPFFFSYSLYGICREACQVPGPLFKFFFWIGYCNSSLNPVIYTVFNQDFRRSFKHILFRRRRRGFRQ

[11] = target: T5, Alpha-2A adrenergic receptor (Homo sapiens, UniProt P08913); assay: Activity at adrenergic alpha-2A receptor expressed in human clonic adenocarcinoma HT29 cell by adenylyl cyclase assay; assay type: functional, cell-based, HT-29
T5 sequence (P08913 whole entry): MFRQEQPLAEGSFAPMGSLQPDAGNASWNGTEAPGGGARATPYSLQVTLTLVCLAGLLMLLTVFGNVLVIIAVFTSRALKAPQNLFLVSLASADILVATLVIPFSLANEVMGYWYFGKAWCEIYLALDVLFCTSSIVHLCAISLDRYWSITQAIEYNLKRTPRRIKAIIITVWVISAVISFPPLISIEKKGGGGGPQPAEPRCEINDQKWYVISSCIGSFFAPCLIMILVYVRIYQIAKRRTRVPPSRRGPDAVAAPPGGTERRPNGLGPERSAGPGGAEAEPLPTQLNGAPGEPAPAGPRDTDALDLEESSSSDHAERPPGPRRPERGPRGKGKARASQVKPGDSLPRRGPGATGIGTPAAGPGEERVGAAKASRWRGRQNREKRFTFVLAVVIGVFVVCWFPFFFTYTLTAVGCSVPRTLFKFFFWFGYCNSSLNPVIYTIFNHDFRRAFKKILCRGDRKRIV

[12] = target: T6, 5-hydroxytryptamine receptor 2C (Homo sapiens, UniProt P28335); assay: biochemical
T6 sequence (P28335 whole entry): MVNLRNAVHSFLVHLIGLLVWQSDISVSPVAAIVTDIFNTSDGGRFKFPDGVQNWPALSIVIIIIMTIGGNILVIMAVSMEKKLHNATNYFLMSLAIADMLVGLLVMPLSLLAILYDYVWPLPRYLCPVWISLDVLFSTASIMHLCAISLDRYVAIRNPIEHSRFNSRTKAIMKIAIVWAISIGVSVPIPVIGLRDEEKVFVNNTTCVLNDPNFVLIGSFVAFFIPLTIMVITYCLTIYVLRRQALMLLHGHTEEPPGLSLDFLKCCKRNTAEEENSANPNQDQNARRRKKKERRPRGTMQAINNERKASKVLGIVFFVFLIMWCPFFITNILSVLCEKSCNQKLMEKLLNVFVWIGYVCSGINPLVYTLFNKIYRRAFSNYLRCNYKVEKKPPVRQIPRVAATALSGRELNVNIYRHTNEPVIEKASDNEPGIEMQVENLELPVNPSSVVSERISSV
Description: Displacement of [125I]DOI from cloned human 5HT2C receptor expressed in CHO cells

Which inhibition [1] does the source give for `C[C@H](N)Cn1ncc2ccc(O)cc21` here?
The inhibition was 7.62%.

And the inhibition [2]?
Its inhibition is 9.07%.

And the inhibition [3]?
Its inhibition is 42.6%.

And the inhibition at 0.1 µM [4]?
Its inhibition at 0.1 µM is 12%.

What about the inhibition [5] of the same compound?
Its inhibition is 11.4%.

What about the inhibition [6] of the same compound?
Its inhibition is 1.44%.

And the inhibition [7]?
Its inhibition is 6.55%.

And the inhibition [8]?
Its inhibition is 2.04%.

And the inhibition [9]?
The inhibition was 5.87%.

What about the Ki [10] of the same compound?
The Ki was 4.7 µM.

What about the EC50 [11] of the same compound?
Its EC50 is > 10 µM.

And the Ki [12]?
Its Ki is 0.003 µM.
